“And” between values parts separate entries of the source, which are not always exact repeats. Equal entries are not always repeated.
Legend:
human skin = test: Human skin permeability, Franz Cell apparatus
Method: Another cell adhesion assay involves evaluating the effect of a modulating agent on permeability of adherent epithelial and/or endothelial cell layers. For example, the effect on permeability of human skin may be evaluated. Such skin may be derived from a natural source or may be synthetic. Human abdominal skin for use in such assays may generally be obtained from humans at autopsy within 24 hours of death. Briefly, a cyclic peptide and a test marker (e.g., the fluorescent markers Oregon Green™ and Rhodamine Green™ Dextran) may be dissolved in a sterile buffer, and the ability of the marker to penetrate through the skin and into a receptor fluid may be measured using a Franz Cell apparatus (Franz, Curr. Prob. Dermatol. 7:58-68, 1978; Franz, J. Invest. Dermatol. 64:190-195, 1975). In general, a modulating agent that enhances the permeability of human skin results in a statistically significant increase in the amount of marker in the receptor compartment after 6-48 hours in the presence of 500 μg/mL modulating agent. This assay evaluates the effect of a modulating agent on E-cadherin mediated cell adhesion.
Abdominal skin from humans at autopsy within 24 hours of death was used in these assays. The effect of N—Ac-CHAVC-NH2 (SEQ ID NO:10) and N—Ac-CHGVC-NH2 (SEQ ID NO:11), used at a concentration of 500 μg/ml or 2.5 mg/ml, on the penetration of two fluorescent markers, Oregon Green 488 (charge −1, MW 386 daltons) and Rhodamine Green 3000 Dextran (no charge, MW 3000 daltons) through human skin was then evaluated utilizing a Franz Cell apparatus (Franz, Curr. Prob. Dermatol. 7:58-68, 1978; Franz, J. Invest. Dermatol. 64:190-195, 1975). The peptides and markers were dissolved in sterile phosphate buffer, pH 7.2, and phosphate buffer was used as the receptor fluid. 150 μl of solution containing 0.2 mg Oregon Green and 1.0 mg Rhodamine Green was used to evaluate 500 μg/ml peptide; 200 μl of solution containing 0.05 mg Oregon Green and 1.250 mg Rhodamine Green was used to evaluate 2.5 mg/ml peptide. The solution was placed on top of the epidermal side of the skin, and the penetration of the markers through the skin was assessed using a fluorescent spectrophotometric method (in a Perkin Elmer 650-105 Fluorescence Spectrophotometer, and comparing the reading to a standard curve) at 6, 12, 24, 36, and 48 hours after the start of the experiment. The fluorescent units were converted to a concentration unit of microgram/5 ml (volume of the receiver compartment) using a standard curve and regression analysis equations. The curve was linear for the concentrations tested for both markers (r^2=1 for OrG and 0.997 for RhG). For each peptide and marker combination, the experiment was performed in triplicate.

[1] = Cytotoxicity, MTT assay, MDA-MB231; format: cell-based, human; details: human, MDA-MB231 cells (human breast cancer cell line); MTT assay; read-out: MDA-MB231 Cytotox (IC50)
Method in brief: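 Cytotoxicity of N-Ac-CHAVC-NH2 and the control peptide N-Ac-CHGVC-NH2 was assessed by MTT reduction in human endothelial, fibroblast and cancer cell lines at concentrations up to 100 μM. Proliferation was measured separately by ^3H-thymidine incorporation over the same concentration range.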

[2] = 500 μg/ml Peptide, t = 6 hours, Mean
[3] = 500 μg/ml Peptide, t = 6 hours, single replicates, listed as Sample#3
[4] = 500 μg/ml Peptide, t = 12 hours, Mean
[5] = 500 μg/ml Peptide, t = 12 hours, single replicates, listed as Sample#3
[6] = 500 μg/ml Peptide, t = 24 hours, Mean
[7] = 500 μg/ml Peptide, t = 24 hours, single replicates, listed as Sample#3
[8] = 500 μg/ml Peptide, t = 36 hours, Mean
[9] = 500 μg/ml Peptide, t = 36 hours, single replicates, listed as Sample#3
[10] = 500 μg/ml Peptide, t = 48 hours, Mean
[11] = 500 μg/ml Peptide, t = 48 hours, single replicates, listed as Sample#3
[12] = 2.5 mg/ml Peptide, t = 6 hours, Mean
[13] = 2.5 mg/ml Peptide, t = 6 hours, single replicates, listed as Sample#3
[14] = 2.5 mg/ml Peptide, t = 12 hours, Mean
[15] = 2.5 mg/ml Peptide, t = 12 hours, single replicates, listed as Sample#3
[16] = 2.5 mg/ml Peptide, t = 24 hours, Mean
[17] = 2.5 mg/ml Peptide, t = 24 hours, single replicates, listed as Sample#3
[18] = 2.5 mg/ml Peptide, t = 36 hours, Mean
[19] = 2.5 mg/ml Peptide, t = 36 hours, single replicates, listed as Sample#3
[20] = 2.5 mg/ml Peptide, t = 48 hours, Mean
[21] = 2.5 mg/ml Peptide, t = 48 hours, single replicates, listed as Sample#3

CC(=O)N[C@H]1CSSC[C@@H](C(N)=O)NC(=O)[C@H](C(C)C)NC(=O)CNC(=O)[C@H](Cc2c[nH]cn2)NC1=O [N—Ac—CHGVC—NH2, reference compound]
Percutaneous absorption concentration for Dextran Rhodamine Green 3000 (human skin; [2]): 0.23 mg/5ml | Percutaneous absorption concentration for Oregon Green 488 (human skin; [2]): 0.055 mg/5ml | Percutaneous absorption concentration for Dextran Rhodamine Green 3000 (human skin; [3]): 0.2 mg/5ml (2×) and 0.3 mg/5ml | Percutaneous absorption concentration for Oregon Green 488 (human skin; [3]): 0.098 mg/5ml and 0.022 mg/5ml and 0.045 mg/5ml | Percutaneous absorption concentration for Dextran Rhodamine Green 3000 (human skin; [4]): 0.67 mg/5ml | Percutaneous absorption concentration for Oregon Green 488 (human skin; [4]): 0.132 mg/5ml | Percutaneous absorption concentration for Dextran Rhodamine Green 3000 (human skin; [5]): 0.6 mg/5ml and 1.0 mg/5ml and 0.4 mg/5ml | Percutaneous absorption concentration for Oregon Green 488 (human skin; [5]): 0.200 mg/5ml and 0.107 mg/5ml and 0.088 mg/5ml | Percutaneous absorption concentration for Dextran Rhodamine Green 3000 (human skin; [6]): 1.07 mg/5ml | Percutaneous absorption concentration for Oregon Green 488 (human skin; [6]): 0.698 mg/5ml | Percutaneous absorption concentration for Dextran Rhodamine Green 3000 (human skin; [7]): 1.0 mg/5ml and 1.4 mg/5ml and 0.8 mg/5ml | Percutaneous absorption concentration for Oregon Green 488 (human skin; [7]): 0.709 mg/5ml and 0.864 mg/5ml and 0.522 mg/5ml | Percutaneous absorption concentration for Dextran Rhodamine Green 3000 (human skin; [8]): 1.2 mg/5ml | Percutaneous absorption concentration for Oregon Green 488 (human skin; [8]): 0.802 mg/5ml | Percutaneous absorption concentration for Dextran Rhodamine Green 3000 (human skin; [9]): 1.0 mg/5ml (2×) and 1.6 mg/5ml | Percutaneous absorption concentration for Oregon Green 488 (human skin; [9]): 0.769 mg/5ml and 0.923 mg/5ml and 0.714 mg/5ml | Percutaneous absorption concentration for Dextran Rhodamine Green 3000 (human skin; [10]): 2.99 mg/5ml | Percutaneous absorption concentration for Oregon Green 488 (human skin; [10]): 0.902 mg/5ml | Percutaneous absorption concentration for Dextran Rhodamine Green 3000 (human skin; [11]): 1.8 mg/5ml (2×) and 5.370 mg/5ml | Percutaneous absorption concentration for Oregon Green 488 (human skin; [11]): 0.923 mg/5ml and 1.021 mg/5ml and 0.764 mg/5ml | Percutaneous absorption concentration for Dextran Rhodamine Green 3000 (human skin; [12]): 1.93 mg/5ml | Percutaneous absorption concentration for Oregon Green 488 (human skin; [12]): 0.04 mg/5ml | Percutaneous absorption concentration for Dextran Rhodamine Green 3000 (human skin; [13]): 1.8 mg/5ml and 0.2 mg/5ml and 3.8 mg/5ml | Percutaneous absorption concentration for Oregon Green 488 (human skin; [13]): 0.04 mg/5ml and 0.01 mg/5ml and 0.06 mg/5ml | Percutaneous absorption concentration for Dextran Rhodamine Green 3000 (human skin; [14]): 8.97 mg/5ml | Percutaneous absorption concentration for Oregon Green 488 (human skin; [14]): 0.07 mg/5ml | Percutaneous absorption concentration for Dextran Rhodamine Green 3000 (human skin; [15]): 17.02 mg/5ml and 2.0 mg/5ml and 7.89 mg/5ml | Percutaneous absorption concentration for Oregon Green 488 (human skin; [15]): 0.11 mg/5ml and 0.04 mg/5ml and 0.08 mg/5ml | Percutaneous absorption concentration for Dextran Rhodamine Green 3000 (human skin; [16]): 15.64 mg/5ml | Percutaneous absorption concentration for Oregon Green 488 (human skin; [16]): 0.16 mg/5ml | Percutaneous absorption concentration for Dextran Rhodamine Green 3000 (human skin; [17]): 27.47 mg/5ml and 5.56 mg/5ml and 13.9 mg/5ml | Percutaneous absorption concentration for Oregon Green 488 (human skin; [17]): 0.12 mg/5ml and 0.11 mg/5ml and 0.26 mg/5ml | Percutaneous absorption concentration for Dextran Rhodamine Green 3000 (human skin; [18]): 19.73 mg/5ml | Percutaneous absorption concentration for Oregon Green 488 (human skin; [18]): 0.25 mg/5ml | Percutaneous absorption concentration for Dextran Rhodamine Green 3000 (human skin; [19]): 33.06 mg/5ml and 5.79 mg/5ml and 20.35 mg/5ml | Percutaneous absorption concentration for Oregon Green 488 (human skin; [19]): 0.23 mg/5ml and 0.22 mg/5ml and 0.29 mg/5ml | Percutaneous absorption concentration for Dextran Rhodamine Green 3000 (human skin; [20]): 25.53 mg/5ml | Percutaneous absorption concentration for Oregon Green 488 (human skin; [20]): 0.36 mg/5ml | Percutaneous absorption concentration for Dextran Rhodamine Green 3000 (human skin; [21]): 40.86 mg/5ml and 8.25 mg/5ml and 27.48 mg/5ml | Percutaneous absorption concentration for Oregon Green 488 (human skin; [21]): 0.36 mg/5ml and 0.26 mg/5ml and 0.46 mg/5ml | IC50 [1]: > 100 µM

Source: patent US20040106545A1, “Compounds and methods for modulating cell adhesion” (priority 1996, published 2004)
